Here are results for two compounds from patent US12152139B2, “Composition, film, optical filter, laminate, solid-state imaging element, image display device, and infrared sensor” (FUJIFILM Corporation, priority 2018, dated 2024).

For orientation: solubility means the dissolved amount per volume that the medium holds.

The series in a line: Solubility in propylene glycol methyl ether acetate. Type of series: physicochemical. The following applies: organic solvent or mixture, thermodynamic from solid, at 25° C., read-out: solubility in propylene glycol methyl ether acetate (compound (1)). As for the experimental part:
<Measurement of Solubility of Near Infrared Absorbing Pigment and Compound (1)>
Under atmospheric pressure, 99 to 101 g of a sample (precisely weighed value is defined as X g) was added to 1 L of propylene glycol methyl ether acetate at 25° C., and the mixture was stirred for 30 minutes. Next, the mixture was allowed to stand for 5 minutes and filtered, and the […] was dried under reduced pressure at 80° C. for 2 hours and weighed precisely (precisely weighed value is defined as Y g). Solubility of the sample dissolved in propylene glycol methyl ether acetate was calculated from the following expression. Solubility (g/L)=X−Y <Method for Quantifying Amine Compound in Composition>

In brackets after ≈: the same amount, converted by molar mass. Where only a bound is given, the exact number is not on record here.

For `O=c1c2ccccc2[nH]c2cc3c(=O)c4ccccc4n(CCCCS(=O)(=O)O)c3cc12` [Example P3], the solubility at 30 min was no less than 500 µg/mL.
For the compound `O=C1C(=C2C(O)=CC(N(c3ccc(S(=O)(=O)O)cc3)c3ccc(S(=O)(=O)O)cc3)C=C2O)C(O)=C1c1c(O)cc(N(c2ccc(S(=O)(=O)O)cc2)c2ccc(S(=O)(=O)O)cc2)cc1O` (centres unmarked) [Example P2], the solubility at 30 min fell in the range of 100 to 500 µg/mL (≈ 105 to 524 µM).
